Assay [1] concerns the target T1, Tyrosine-protein kinase TXK (Homo sapiens) (UniProt P42681).
T1 sequence (whole entry): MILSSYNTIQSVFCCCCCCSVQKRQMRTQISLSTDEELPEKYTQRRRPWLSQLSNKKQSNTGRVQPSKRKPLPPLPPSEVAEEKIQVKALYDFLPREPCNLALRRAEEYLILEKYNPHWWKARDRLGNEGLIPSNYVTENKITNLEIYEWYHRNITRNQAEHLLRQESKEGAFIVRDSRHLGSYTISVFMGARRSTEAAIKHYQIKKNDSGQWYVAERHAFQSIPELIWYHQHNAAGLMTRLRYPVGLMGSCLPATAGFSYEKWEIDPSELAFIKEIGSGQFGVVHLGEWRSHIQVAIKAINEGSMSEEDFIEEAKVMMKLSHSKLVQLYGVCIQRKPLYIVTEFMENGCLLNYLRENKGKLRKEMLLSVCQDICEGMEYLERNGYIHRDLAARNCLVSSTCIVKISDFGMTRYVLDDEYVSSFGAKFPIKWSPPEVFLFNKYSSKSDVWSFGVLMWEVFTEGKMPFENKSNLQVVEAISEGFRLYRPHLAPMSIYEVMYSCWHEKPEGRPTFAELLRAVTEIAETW
As to the kind of experiment: Inhibition of human TXK at 500 nM by HotSpot assay relative to control.

Assay [2] addresses Mitogen-activated protein kinase kinase kinase 10 (Homo sapiens) (UniProt Q02779). The assay can be described thus: Inhibition of human MAP3K10 at 500 nM by HotSpot assay relative to control.
In assay [3] the target is Serine/threonine-protein kinase pim-3 (Homo sapiens) (UniProt Q86V86). The assay can be described thus: Inhibition of human PIM3 at 500 nM by HotSpot assay relative to control.
The target in assay [4] is T2, Serine/threonine-protein kinase DCLK2 (Homo sapiens) (UniProt Q8N568).
T2 sequence (whole entry): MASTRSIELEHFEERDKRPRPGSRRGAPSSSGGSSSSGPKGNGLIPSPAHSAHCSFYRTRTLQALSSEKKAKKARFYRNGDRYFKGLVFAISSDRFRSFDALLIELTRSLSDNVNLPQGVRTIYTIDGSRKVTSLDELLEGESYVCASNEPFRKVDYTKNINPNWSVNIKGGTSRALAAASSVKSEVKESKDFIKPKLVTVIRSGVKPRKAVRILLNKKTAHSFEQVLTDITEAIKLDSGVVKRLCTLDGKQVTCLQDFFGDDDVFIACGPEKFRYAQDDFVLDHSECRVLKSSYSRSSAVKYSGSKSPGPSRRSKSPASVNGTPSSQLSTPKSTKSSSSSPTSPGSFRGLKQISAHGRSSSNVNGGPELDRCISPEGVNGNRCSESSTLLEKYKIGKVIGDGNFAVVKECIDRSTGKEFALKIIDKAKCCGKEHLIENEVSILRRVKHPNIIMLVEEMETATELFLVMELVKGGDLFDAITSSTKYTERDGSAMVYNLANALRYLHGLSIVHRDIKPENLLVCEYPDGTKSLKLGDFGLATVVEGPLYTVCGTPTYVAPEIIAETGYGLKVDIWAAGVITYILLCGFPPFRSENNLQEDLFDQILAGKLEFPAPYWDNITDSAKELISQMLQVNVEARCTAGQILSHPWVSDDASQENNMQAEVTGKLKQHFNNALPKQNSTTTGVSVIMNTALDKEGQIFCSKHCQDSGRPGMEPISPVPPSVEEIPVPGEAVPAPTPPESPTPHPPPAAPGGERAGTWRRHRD
The assay can be described thus: Inhibition of human DCAMKL2 at 500 nM by HotSpot assay relative to control.

Assay [5] deals with T3, Serine/threonine-protein kinase TBK1 (Homo sapiens) (UniProt Q9UHD2).
T3 sequence (whole entry): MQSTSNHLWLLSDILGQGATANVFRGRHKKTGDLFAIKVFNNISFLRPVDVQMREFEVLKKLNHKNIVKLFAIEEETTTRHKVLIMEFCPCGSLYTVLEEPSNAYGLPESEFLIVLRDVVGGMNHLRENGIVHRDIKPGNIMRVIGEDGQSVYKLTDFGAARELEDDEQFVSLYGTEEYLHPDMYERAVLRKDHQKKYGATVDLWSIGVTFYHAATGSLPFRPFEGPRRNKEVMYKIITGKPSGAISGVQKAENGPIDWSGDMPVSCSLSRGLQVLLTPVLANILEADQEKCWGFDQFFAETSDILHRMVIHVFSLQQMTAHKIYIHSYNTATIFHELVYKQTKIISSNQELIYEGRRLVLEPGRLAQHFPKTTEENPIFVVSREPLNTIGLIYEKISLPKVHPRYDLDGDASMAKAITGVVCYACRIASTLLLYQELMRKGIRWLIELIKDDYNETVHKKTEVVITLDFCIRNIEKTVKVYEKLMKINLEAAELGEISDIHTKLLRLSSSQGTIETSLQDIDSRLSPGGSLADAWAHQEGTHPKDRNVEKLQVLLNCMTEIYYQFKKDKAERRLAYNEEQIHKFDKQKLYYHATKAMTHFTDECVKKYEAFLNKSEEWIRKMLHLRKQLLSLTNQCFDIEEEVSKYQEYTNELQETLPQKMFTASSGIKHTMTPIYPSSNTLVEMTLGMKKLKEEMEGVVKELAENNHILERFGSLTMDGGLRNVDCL
As to the kind of experiment: Inhibition of human TBK1 at 500 nM by HotSpot assay relative to control.

The target of assay [6] is Activin receptor type-1-like (Homo sapiens) (UniProt P37023). As to the kind of experiment: Inhibition of human ALK1 at 500 nM by HotSpot assay relative to control.
Chain of Activin receptor type-1-like (Homo sapiens) (P37023 whole entry): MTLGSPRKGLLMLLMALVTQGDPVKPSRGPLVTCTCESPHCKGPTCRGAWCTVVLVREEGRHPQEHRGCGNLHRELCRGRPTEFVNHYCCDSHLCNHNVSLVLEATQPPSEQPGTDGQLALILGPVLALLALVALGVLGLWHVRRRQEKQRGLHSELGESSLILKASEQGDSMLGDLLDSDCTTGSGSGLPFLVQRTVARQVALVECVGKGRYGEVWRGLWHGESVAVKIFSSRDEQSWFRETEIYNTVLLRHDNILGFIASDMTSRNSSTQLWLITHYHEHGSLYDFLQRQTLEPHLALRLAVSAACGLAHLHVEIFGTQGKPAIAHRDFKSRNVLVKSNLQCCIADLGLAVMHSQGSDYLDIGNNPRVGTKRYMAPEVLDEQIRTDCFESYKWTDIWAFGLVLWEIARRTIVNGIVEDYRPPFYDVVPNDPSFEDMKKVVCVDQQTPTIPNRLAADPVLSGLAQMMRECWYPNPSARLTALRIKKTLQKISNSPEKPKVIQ
In assay [7] the target is Tyrosine-protein kinase ABL2 (Homo sapiens) (UniProt P42684). The assay can be described thus: Inhibition of human ABL2 at 500 nM by HotSpot assay relative to control.
Chain of Tyrosine-protein kinase ABL2 (Homo sapiens) (P42684 whole entry): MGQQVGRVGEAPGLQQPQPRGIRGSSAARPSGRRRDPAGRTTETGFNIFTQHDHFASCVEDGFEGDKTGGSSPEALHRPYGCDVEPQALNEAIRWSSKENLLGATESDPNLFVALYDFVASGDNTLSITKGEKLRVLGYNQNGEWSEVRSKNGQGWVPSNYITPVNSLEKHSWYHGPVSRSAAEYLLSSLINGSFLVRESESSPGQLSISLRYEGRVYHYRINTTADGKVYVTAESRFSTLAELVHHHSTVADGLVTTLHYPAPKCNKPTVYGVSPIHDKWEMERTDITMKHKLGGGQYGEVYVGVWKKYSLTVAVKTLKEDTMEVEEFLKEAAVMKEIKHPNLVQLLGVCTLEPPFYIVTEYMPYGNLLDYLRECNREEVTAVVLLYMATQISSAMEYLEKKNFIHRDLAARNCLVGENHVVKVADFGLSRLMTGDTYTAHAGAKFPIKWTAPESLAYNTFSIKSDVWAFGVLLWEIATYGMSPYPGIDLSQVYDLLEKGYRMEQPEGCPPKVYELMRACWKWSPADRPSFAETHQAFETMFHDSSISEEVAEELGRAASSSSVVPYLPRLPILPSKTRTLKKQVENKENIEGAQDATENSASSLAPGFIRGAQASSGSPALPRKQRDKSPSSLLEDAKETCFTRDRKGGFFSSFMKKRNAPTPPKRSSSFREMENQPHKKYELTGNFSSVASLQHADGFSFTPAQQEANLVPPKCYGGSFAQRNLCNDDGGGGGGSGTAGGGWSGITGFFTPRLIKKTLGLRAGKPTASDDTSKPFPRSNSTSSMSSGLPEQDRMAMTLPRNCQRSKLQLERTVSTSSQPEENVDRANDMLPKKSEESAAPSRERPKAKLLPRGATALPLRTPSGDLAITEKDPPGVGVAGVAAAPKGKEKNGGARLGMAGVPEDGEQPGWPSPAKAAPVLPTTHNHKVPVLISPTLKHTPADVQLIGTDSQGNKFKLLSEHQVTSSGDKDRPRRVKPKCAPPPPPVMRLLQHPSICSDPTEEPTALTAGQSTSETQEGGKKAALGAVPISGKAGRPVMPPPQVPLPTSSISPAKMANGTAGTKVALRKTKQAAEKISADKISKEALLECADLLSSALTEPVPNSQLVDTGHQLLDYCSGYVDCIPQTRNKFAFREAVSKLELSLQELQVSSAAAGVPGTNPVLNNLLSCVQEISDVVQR
Assay [8] addresses T4, Serine/threonine-protein kinase STK11 (Homo sapiens) (UniProt Q15831).
T4 sequence (whole entry): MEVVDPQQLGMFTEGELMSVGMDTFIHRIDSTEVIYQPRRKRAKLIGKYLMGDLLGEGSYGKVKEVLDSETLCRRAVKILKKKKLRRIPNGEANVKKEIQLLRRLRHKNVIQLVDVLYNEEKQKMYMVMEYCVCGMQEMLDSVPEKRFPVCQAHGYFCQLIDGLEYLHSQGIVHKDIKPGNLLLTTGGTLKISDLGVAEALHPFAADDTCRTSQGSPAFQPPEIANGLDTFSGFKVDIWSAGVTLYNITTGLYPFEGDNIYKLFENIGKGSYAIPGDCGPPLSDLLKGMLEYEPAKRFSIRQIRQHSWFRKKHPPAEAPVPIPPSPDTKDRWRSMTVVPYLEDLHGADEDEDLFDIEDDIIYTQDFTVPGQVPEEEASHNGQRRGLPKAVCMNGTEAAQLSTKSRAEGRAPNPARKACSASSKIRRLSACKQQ
As to the kind of experiment: Inhibition of human LKB1 at 500 nM by HotSpot assay relative to control.

Chain of Mitogen-activated protein kinase kinase kinase 10 (Homo sapiens) (Q02779 whole entry, looked up): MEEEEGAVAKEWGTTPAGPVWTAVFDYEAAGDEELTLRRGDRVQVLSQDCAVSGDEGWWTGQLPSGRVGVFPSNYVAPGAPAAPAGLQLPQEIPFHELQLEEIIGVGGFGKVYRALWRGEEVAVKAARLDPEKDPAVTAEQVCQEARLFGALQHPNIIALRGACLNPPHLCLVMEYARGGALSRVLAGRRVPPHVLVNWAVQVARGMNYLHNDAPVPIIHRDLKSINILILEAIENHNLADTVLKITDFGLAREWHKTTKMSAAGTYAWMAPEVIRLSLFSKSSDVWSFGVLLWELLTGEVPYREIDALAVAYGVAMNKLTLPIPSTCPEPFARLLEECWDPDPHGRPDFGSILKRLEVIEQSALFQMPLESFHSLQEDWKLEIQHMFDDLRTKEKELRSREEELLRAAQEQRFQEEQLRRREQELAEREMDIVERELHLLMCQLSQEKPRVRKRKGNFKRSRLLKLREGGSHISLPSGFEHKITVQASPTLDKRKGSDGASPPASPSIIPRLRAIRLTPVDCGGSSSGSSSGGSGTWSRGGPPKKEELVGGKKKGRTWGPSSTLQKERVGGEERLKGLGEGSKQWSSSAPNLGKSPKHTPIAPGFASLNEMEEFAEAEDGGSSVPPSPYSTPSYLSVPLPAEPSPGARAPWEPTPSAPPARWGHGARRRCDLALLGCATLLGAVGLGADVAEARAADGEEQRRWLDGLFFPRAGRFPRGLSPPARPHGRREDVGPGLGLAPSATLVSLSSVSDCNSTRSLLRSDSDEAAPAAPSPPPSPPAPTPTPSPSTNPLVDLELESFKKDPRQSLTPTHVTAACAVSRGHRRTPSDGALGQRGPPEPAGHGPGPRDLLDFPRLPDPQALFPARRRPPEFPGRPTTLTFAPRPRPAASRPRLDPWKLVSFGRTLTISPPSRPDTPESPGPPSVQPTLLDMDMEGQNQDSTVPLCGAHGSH

Turning to `Oc1n[nH]c2nnc(-c3c(-c4ccccc4)nn4ccccc34)cc12`, the inhibition (in general, the drop in the measured response relative to a control, in per cent) in assay [1] is 2.55%; in assay [2] it was 5.25%; in assay [3] it was -0.71%; in assay [4] it was 0.11%; in assay [5], -4.04%; in assay [6], -0.63%. The inhibition in assay [7] came to 3.05%; in assay [8], 7.3%.

`Nc1n[nH]c2nnc(-c3c(-c4ccccc4)nn4ccccc34)cc12`: the inhibition in assay [1] was 11.2%; in assay [2], 9.29%; in assay [3], -0.43%; in assay [4], -0.33%; in assay [5] it was -0.37%; in assay [6], -6.11%. In addition, the inhibition in assay [7] was 42.5%; in assay [8], 8.15%.

(Values after ChEMBL document CHEMBL5653615 (J Biol Chem, 2013).)
